Measured values taken from ChEMBL document CHEMBL5244273, “Tuberculosis: An Overview of the Immunogenic Response, Disease Progression, and Medicinal Chemistry Efforts in the Last Decade toward the Development of Potential Drugs for Extensively Drug-Resistant Tuberculosis Strains” (J Med Chem, 2021).
In brackets after ≈: the same amount, converted by molar mass.

Experiments:
[1] = tested on: Mycobacterium tuberculosis; experiment: Antimycobacterial activity against non replicating Mycobacterium tuberculosis by broth dilution method; assay type: functional
[2] = tested on: Mycobacterium tuberculosis; experiment: Antimycobacterial activity against Mycobacterium tuberculosis H37Rv ATCC 27294 by broth dilution method; assay type: functional
[3] = tested on: J774; experiment: Cytotoxicity against mouse J774 cells incubated for 24 hrs by MTT assay; assay type: toxicity, cell-based; conditions: j774, 24 h
[4] = Selectivity index, ratio of GI50 for cytotoxicity against human MCF7 cells to MIC for antitubercular activity against dormant stage of Mycobacterium tuberculosis H37Ra; assay type: toxicity, cell-based; conditions: read-out: Selectivity Index
[5] = Cytotoxicity against HUVEC cells assessed as cell growth inhibition; assay type: toxicity, cell-based; conditions: human
[6] = Selectivity index, ratio of GI50 for cytotoxicity against human HeLa cells to MIC for antitubercular activity against active stage of Mycobacterium tuberculosis H37Ra; assay type: toxicity, cell-based; conditions: read-out: Selectivity Index
[7] = tested on: Mycobacterium tuberculosis; experiment: Antitubercular activity against active stage of Mycobacterium tuberculosis H37Ra; assay type: functional
[8] = tested on: Mycobacterium tuberculosis; experiment: Antitubercular activity against dormant stage of Mycobacterium tuberculosis H37Ra; assay type: functional
[9] = Selectivity index, ratio of GI50 for cytotoxicity against human HeLa cells to MIC for antitubercular activity against dormant stage of Mycobacterium tuberculosis H37Ra; assay type: toxicity, cell-based; conditions: read-out: Selectivity Index
[10] = tested on: MCF7; experiment: Cytotoxicity against human MCF7 cells assessed as cell growth inhibition; assay type: functional
[11] = Selectivity index, ratio of GI50 for cytotoxicity against HUVEC cells to MIC for antitubercular activity against dormant stage of Mycobacterium tuberculosis H37Ra; assay type: toxicity, cell-based; conditions: human, read-out: Selectivity Index
[12] = Selectivity index, ratio of GI50 for cytotoxicity against HUVEC cells to MIC for antitubercular activity against active stage of Mycobacterium tuberculosis H37Ra; assay type: toxicity, cell-based; conditions: human, read-out: Selectivity Index
[13] = Selectivity index, ratio of GI50 for cytotoxicity against human MCF7 cells to MIC for antitubercular activity against active stage of Mycobacterium tuberculosis H37Ra; assay type: toxicity, cell-based; conditions: read-out: Selectivity Index
[14] = tested on: HeLa; experiment: Cytotoxicity against human HeLa cells assessed as cell growth inhibition; assay type: functional
[15] = tested on: Mycobacterium tuberculosis; experiment: Antimycobacterial activity against Mycobacterium tuberculosis H37Rv; assay type: functional
[16] = Cytotoxicity against HEK293T cells assessed as reduction in cell viability; assay type: toxicity, cell-based, HEK-293T; conditions: human
[17] = tested on: Mycobacterium tuberculosis; experiment: Antimycobacterial activity against Mycobacterium tuberculosis H37Rv incubated for 2 weeks; assay type: functional; conditions: 336 h
[18] = tested on: Mycobacterium tuberculosis; experiment: Antimycobacterial activity against Mycobacterium tuberculosis H37Rv incubated for 4 weeks; assay type: functional; conditions: 672 h
[19] = tested on: Mycobacterium tuberculosis; experiment: Antitubercular activity against Mycobacterium tuberculosis H37Rv assessed as inhibition of bacterial growth by alamar blue assay; assay type: functional
[20] = tested on: Mycobacterium tuberculosis; experiment: Antimycobacterial activity against Mycobacterium tuberculosis H37Rv incubated for 5 weeks; assay type: functional; conditions: 840 h
[21] = tested on: Mycobacterium tuberculosis; experiment: Antimycobacterial activity against Mycobacterium tuberculosis H37Rv assessed as inhibition of bacterial growth incubated for 5 days by alamar blue assay; assay type: functional; conditions: 120 h, time 5 day
[22] = tested on: Mycobacterium tuberculosis; experiment: Antimycobacterial activity against Mycobacterium tuberculosis H37Rv incubated for 3 weeks; assay type: functional; conditions: 504 h

Row | Compound | MIC [1] [µg/mL] | MIC [2] [µg/mL] | Activity [3] [µg/mL] | selectivity ratio [4] | GI50 [5] [µg/mL] | selectivity ratio [6] | MIC [7] [µg/mL] | MIC [8] [µg/mL] | selectivity ratio [9] | GI50 [10] [µg/mL] | selectivity ratio [11] | selectivity ratio [12] | selectivity ratio [13] | GI50 [14] [µg/mL] | further results
1 | Cc1ccccc1OCc1cn(C[C@@]2(C)Cn3cc([N+](=O)[O-])nc3O2)nn1 | 2 (≈ 5.4 µM) | 0.5 (≈ 1.35 µM) | > 40 |  |  |  |  |  |  |  |  |  |  |  | 
2 | C[C@]1(Cn2cc(COc3ccccc3F)nn2)Cn2cc([N+](=O)[O-])nc2O1 | 0.5 (≈ 1.34 µM) | 0.25 (≈ 0.668 µM) | > 40 |  |  |  |  |  |  |  |  |  |  |  | 
3 | C[C@]1(Cn2cc(COc3ccc(Br)cc3)nn2)Cn2cc([N+](=O)[O-])nc2O1 | 0.25 (≈ 0.574 µM) | 0.12 (≈ 0.276 µM) | > 40 |  |  |  |  |  |  |  |  |  |  |  | 
4 | C[C@]1(Cn2cc(COc3cccc(Cl)c3)nn2)Cn2cc([N+](=O)[O-])nc2O1 | 1 (≈ 2.56 µM) | 0.5 (≈ 1.28 µM) | > 40 |  |  |  |  |  |  |  |  |  |  |  | 
5 | C[C@]1(Cn2cc(-c3ccc(Oc4ccccc4)cc3)nn2)Cn2cc([N+](=O)[O-])nc2O1 | 2 (≈ 4.78 µM) | 2 (≈ 4.78 µM) | > 40 |  |  |  |  |  |  |  |  |  |  |  | 
6 | CC(C)c1ccc(OCc2cn(C[C@@]3(C)Cn4cc([N+](=O)[O-])nc4O3)nn2)cc1 | 1 (≈ 2.51 µM) | 0.5 (≈ 1.25 µM) | > 40 |  |  |  |  |  |  |  |  |  |  |  | 
7 | C[C@]1(Cn2cc(COc3ccc(OC(F)(F)F)cc3)nn2)Cn2cc([N+](=O)[O-])nc2O1 | 4 (≈ 9.08 µM) | 2 (≈ 4.54 µM) | > 40 |  |  |  |  |  |  |  |  |  |  |  | 
8 | C[C@]1(Cn2cc(COc3ccc(C(F)(F)F)cc3)nn2)Cn2cc([N+](=O)[O-])nc2O1 | 2 (≈ 4.71 µM) | 1 (≈ 2.36 µM) | > 40 |  |  |  |  |  |  |  |  |  |  |  | 
9 | CCCCCc1cn(C[C@@]2(C)Cn3cc([N+](=O)[O-])nc3O2)nn1 | 4 (≈ 12.5 µM) | 2 (≈ 6.24 µM) | > 40 |  |  |  |  |  |  |  |  |  |  |  | 
10 | COC(=O)c1sccc1NC(=O)[C@@H]1CCCN1 |  |  |  | 24.2 | 91.3 (≈ 359 µM) | 5.7 | 15.9 (≈ 62.4 µM) | 6.74 (≈ 26.5 µM) | 13.4 | 163 (≈ 641 µM) | 13.6 | 5.75 | 10.3 | 90.4 (≈ 355 µM) | 
11 | O=C(OCC(Cl)(Cl)Cl)c1ccsc1NC(=O)[C@@H]1CCCN1 |  |  |  | > 15.5 | > 250 | > 12.3 | 20.4 (≈ 54.9 µM) | 16.1 (≈ 43.3 µM) | > 15.5 | > 250 | > 15.5 | > 12.3 | > 12.3 | > 250 | 
12 | O=C1CC[C@@H](COC(=O)c2ccsc2NC(=O)[C@@H]2CCCN2)N1 |  |  |  | 22.1 | 88.6 (≈ 263 µM) | 20.2 | 9.46 (≈ 28 µM) | 6.67 (≈ 19.8 µM) | 28.6 | 148 (≈ 437 µM) | 13.3 | 9.36 | 15.6 | 191 (≈ 566 µM) | 
13 | CC(=O)N1/C(=C/c2ccc(-c3ccc(OC(F)(F)F)cc3)cc2)C(=O)c2ccccc21 |  |  |  |  |  |  |  |  |  |  |  |  |  |  | MIC90 [15]: 1.44 µM (≈ 0.61 µg/mL); MIC99 [15]: 3.19 µM (≈ 1.35 µg/mL); CC50 [16]: 8 µM
14 | COC(=O)c1ccsc1NC(=O)[C@H]1CCCN1 |  |  |  | 20.4 | 95.8 (≈ 377 µM) | 8.43 | 10.8 (≈ 42.6 µM) | 8.78 (≈ 34.5 µM) | 10.4 | 179 (≈ 704 µM) | 10.9 | 8.84 | 16.5 | 91.4 (≈ 359 µM) | 
15 | CC(=O)N1/C(=C/c2ccc(-c3ccc(F)cc3)cc2)C(=O)c2ccccc21 |  |  |  |  |  |  |  |  |  |  |  |  |  |  | MIC90 [15]: 1.26 µM (≈ 0.45 µg/mL); MIC99 [15]: 1.98 µM (≈ 0.708 µg/mL); CC50 [16]: 9 µM
16 | O=C(OC1CCCCC1)c1ccsc1NC(=O)[C@@H]1CCCN1 |  |  |  | 33 | 137 (≈ 426 µM) | 3.76 | 24.6 (≈ 76.4 µM) | 4.92 (≈ 15.3 µM) | 18.9 | 162 (≈ 504 µM) | 27.9 | 5.57 | 6.59 | 92.8 (≈ 288 µM) | 
17 | COC(=O)c1ccsc1NC(=O)[C@@H]1CCCN1 |  |  |  | > 74.6 | > 250 | > 20.9 | 12 (≈ 47.1 µM) | 3.35 (≈ 13.2 µM) | > 74.6 | > 250 | > 74.6 | > 20.9 | > 20.9 | > 250 | 
18 | C[C@]1(Cn2cc(COc3ccccn3)nn2)Cn2cc([N+](=O)[O-])nc2O1 | 2 (≈ 5.6 µM) | 1 (≈ 2.8 µM) | > 40 |  |  |  |  |  |  |  |  |  |  |  | 
19 | O=C(O)c1cn(C2CC2)c2cc(N3CCNCC3)c(F)cc2c1=O [CIPROFLOXACIN] |  |  |  |  |  |  |  |  |  |  |  |  |  |  | MIC [17]: 0.25 µg/mL (≈ 0.754 µM); MIC [18]: 0.25 µg/mL (≈ 0.754 µM); MIC [15]: 3.12 µg/mL (≈ 9.42 µM); MIC [19]: 3.12 µg/mL (≈ 9.43 µM); MIC [20]: 0.25 µg/mL (≈ 0.754 µM); MIC [21]: 3.12 µg/mL (≈ 9.42 µM); MIC [22]: 0.25 µg/mL (≈ 0.754 µM)
20 | CC(=O)O[C@H]1C(=O)[C@@]2(C)[C@H]([C@H](OC(=O)c3ccccc3)[C@]3(O)C[C@H](OC(=O)[C@H](O)[C@@H](NC(=O)c4ccccc4)c4ccccc4)C(C)=C1C3(C)C)[C@]1(OC(C)=O)CO[C@@H]1C[C@@H]2O [PACLITAXEL] |  |  |  |  | > 10 |  |  |  |  | 0.0021 (≈ 0.00246 µM) |  |  |  | 0.0048 (≈ 0.00562 µM) | 
